Assay in all cases: NCI tumour cell line growth inhibition, 48 h
Assay [1] concerns DLD-1 colon.
The subject of assay [2] is HOP-18 NSCLC.
Assay [3] deals with LXFL 529 NSCLC.
The test system of assay [4] is M19-MEL melanoma.
Assay [5] deals with T-47D breast.
Assay [6] concerns HS 578T breast.
Assay [7] deals with MCF7 breast.
Assay [8] deals with MDA-N.

Molecules are shown by their SMILES. Where “and” joins values, the source holds several entries; their conditions need not be identical. Equal values may be shown once.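 Results reflect a 48-hour exposure of cells in 96-well plates to compound at five concentrations. GI50 marks 50% less growth. TGI denotes the concentration required for complete inhibition of growth.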

This passage reports TGI and GI50 results from PubChem BioAssay (NCI).

Take `COc1cc(C(C#N)NNC(=O)c2ccccc2O)ccc1O` (stereo not given): the TGI in assay [1] was greater than 100 µM; in assay [2], 97.9 µM; in assay [3] it was greater than 100 µM; in assay [4] it was greater than 100 µM.

`O=c1c(OC/C(=N/O)c2ccccc2)c(-c2ccccc2)oc2ccccc12`: in assay [5], the GI50 is 14.8 µM and the TGI amounted to 38.1 µM.

With `Cn1cnc([N+](=O)[O-])c1Sc1ncnc2nc[nH]c12`, the GI50 was 4.8 µM and 3.86 µM in assay [6]; 2.92 µM and 3.69 µM in assay [7]; 2.75 µM and 4.51 µM in assay [5]. Also, the TGI in assay [6], in assay [7] and in assay [5] was greater than 100 µM throughout.

Consider `OC1CCC(Oc2cccc3cnc(Nc4ccc5nc[nH]c5c4)nc23)CC1` (stereo not given), for which the GI50 is 0.728 µM in assay [6], 0.217 µM in assay [7] and 1.03 µM in assay [5]. The figures for the TGI in assay [6], in assay [7] and in assay [5] were 8.32 µM, 3.1 µM and 14.4 µM, respectively.

With `CN(C)CN1C(=O)S/C(=C2\C(=O)N(CN(C)C)c3ccccc32)C1=O`, the TGI in assay [6], in assay [7] and in assay [5] was greater than 100 µM each time.

For `O=C(Nc1ccc(Br)cc1)c1cc(Br)cc(Br)c1O`, the GI50 in assay [6] was 2.71 µM; in assay [7], 2.46 µM; in assay [5] it was 2.74 µM. For the same compound, the TGI is 7.74 µM in assay [6], greater than 100 µM in assay [7] and 28.4 µM in assay [5].

On to `CN(C)CCNC(=O)c1cccc(CO)c1[N+](=O)[O-]`, for which the TGI in assay [6], in assay [7], in assay [8] and in assay [5] was greater than 100 µM throughout.

As to `COC(=O)/C(=N/NC(C)(C)C)C(C(=O)C=C(C)C)C(=O)C(=O)Nc1ccc(Cl)cc1C` (stereo not given), the TGI in assay [3] and in assay [4] was greater than 100 µM each time.

On to `O=C(/C=C/c1ccc([N+](=O)[O-])o1)NNC(=O)c1cc2ccccc2cc1O`, for which the GI50 was 6.21 µM in assay [6], 0.824 µM in assay [7] and 1.51 µM in assay [5]. In addition, the TGI in assay [6] was greater than 100 µM; in assay [7], greater than 100 µM; in assay [5], 5.77 µM.

Regarding `O=Nc1c2cccnc2n2nnc3ccc(Cl)cc3c12`, the GI50 in assay [6] is 2.84 µM; in assay [7], 0.792 µM; in assay [5], 0.412 µM. Further, the TGI in assay [6] was found to be 9.89 µM; in assay [7], 3.39 µM; in assay [5], 1.7 µM.

`O=C(N=Nc1c(O)[nH]c2ccccc12)c1ccccc1O`: the TGI in assay [1], in assay [2], in assay [3] and in assay [4] was greater than 100 µM throughout.

As to `CCc1ccc(C2=C(O)C(=O)C(c3ccc(CC)cc3)=C(O)C2=O)cc1`, the GI50 in assay [6] was 1.72 µM; in assay [7], 1.83 µM; in assay [5], 1.9 µM. For the same compound, the TGI in assay [6] was found to be 6.58 µM; in assay [7], 5.05 µM; in assay [5] it was 6.65 µM.

As for `c1c[nH]c(Cc2ncc(Cc3cnc[nH]3)[nH]2)n1`, the TGI in assay [1] is greater than 100 µM; in assay [2] it was greater than 100 µM; in assay [3], greater than 100 µM; in assay [4], 55.8 µM.

As to `CCOC(=O)/C=C(/CN1C(=O)c2ccccc2C1=O)c1ccccc1`, the TGI in assay [1], in assay [2], in assay [3] and in assay [4] was greater than 100 µM each time.

Regarding `O=C(O)c1nnsc1COCc1ccccc1`, the TGI in assay [6], in assay [7], in assay [8] and in assay [5] was greater than 100 µM throughout.

As to `c1ccc(COc2ccc3[nH]c4c(ncc5[nH]c6ccccc6c54)c3c2)cc1`, the values for the TGI in assay [1], in assay [2] and in assay [3] were 17.7 µM, 26.1 µM and 29.5 µM, respectively.

In the case of `O=C1C=C(c2cc(Br)c(O)c(Br)c2)/C(=C/c2cc(Br)c(O)c(Br)c2)O1`, the GI50 in assay [6] is 33.9 µM; in assay [7], 37 µM; in assay [8], 33 µM; in assay [5] it was greater than 75 µM. Moreover, the TGI in assay [6], in assay [7], in assay [8] and in assay [5] was greater than 75 µM each time.

For the compound `NC(N)=N/N=C/c1c(-c2cc(Cl)sc2Cl)nc2n1CCS2`, the results for the GI50 in assay [6] and in assay [7] were 9.23 µM and 10.6 µM, respectively. Further, the TGI came to 21.8 µM in assay [6] and 25.3 µM in assay [7].

For the compound `CC(C)(C)N=CN1CCC(C(c2ccccc2)c2ccccc2)CC1`, the TGI in assay [1], in assay [2] and in assay [4] was greater than 100 µM in each case.

Take `CC1=C(N2CC2)C(=O)c2nc3n(c2C1=O)CCC3O` (stereo not given): the TGI in assay [2] was greater than 100 µM; in assay [6], 0.0585 µM; in assay [3], 2.44 µM; in assay [4] it was 3.57 µM; in assay [5], 2.04 µM.

For `CC1(C)C2CCC1C(=O)C(C=O)C2` (stereo not given), the TGI in assay [6], in assay [7], in assay [8] and in assay [5] was greater than 100 µM in each case.

For `O=C1Cc2c(-c3ccccc3)cc(-c3cccc(Cl)c3)nc2-c2ccccc2N1`, the TGI in assay [6] is 9.85 µM; in assay [7], greater than 22.6 µM; in assay [8], 31.6 µM; in assay [5] it was 6.01 µM.

Take `COC(=O)c1ccc2c(c1)c1c(C)c3cnccc3c(C)c1n2C`: the GI50 is 0.108 µM in assay [6], 0.109 µM in assay [7] and 0.28 µM in assay [5]. The values for the TGI in assay [6], in assay [7] and in assay [5] were 0.584 µM, 0.511 µM and 2.25 µM, respectively.

As to `NC(=O)c1ccccc1NC(=O)C(=O)C(c1cnc2ccc([N+](=O)[O-])cc2n1)[N+](=O)[O-]` (stereo not given), the TGI in assay [6], in assay [7] and in assay [5] was greater than 100 µM throughout.

On to `c1cc(-c2sc(-c3ccncc3)c(-c3ccncc3)c2-c2ccncc2)ccn1`, for which the TGI is 73.5 µM in assay [6], 52 µM in assay [7], 29 µM in assay [8] and greater than 100 µM in assay [5].

Consider `NC(N)=NNC(=O)C(=O)O`, for which the TGI in assay [6], in assay [7], in assay [8] and in assay [5] was greater than 100 µM each time.
